The source of these data is PubChem BioAssay (NCI).

Each structure is given as a SMILES string.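 Cells were grown in 96-well plates and exposed to each compound for 48 hours at five concentrations; endpoints were interpolated linearly between bracketing concentrations, or set to the highest concentration if not reached. Definition used: TGI = concentration required for complete inhibition of growth.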

In one experiment the test system is DMS 273 small cell lung. Put plainly: NCI anticancer screen, dose series, 48 h.
Consider `Cc1c2ccncc2c(C)c2c1[nH]c1ccc(O)c(OCC(F)(F)F)c12`, for which the TGI is 4.87 µM.
On to `CC(C)(C)OC(=O)NC1CCCC1=O` (stereo not drawn), for which the TGI was above 100 µM.
Same read-out and setting: next, `O=C1[C@H]2ON(c3ccccc3)C(c3ccco3)[C@H]2C(=O)N1c1ccc(Cc2ccc(N3C(=O)[C@@H]4ON(c5ccccc5)C(c5ccco5)[C@@H]4C3=O)cc2)cc1` (stereo partly drawn): above 100 µM; `Cc1cccc(C)c1N1C(=O)C(=O)C(c2nc3ccccc3s2)/C(=N/NC(=O)NN)C1=O` (stereo not drawn): above 100 µM.
Still for that read-out and setting: for `CCCCCCC(C)CCCCCCCCCCC(=O)O` (stereo not drawn) the value was above 100 µM; for `COc1ccc2[nH]c(-c3ccc(O)cc3)cc(=O)c2c1`, 0.717 µM; for `COc1cc(CNc2nc3ccc(C(F)(F)F)cc3nc2-c2ccccc2)cc(OC)c1OC`, above 100 µM.
`O=C(CC1(O)C(=O)Nc2c(Cl)ccc(Cl)c21)c1ccc(Cl)cc1Cl` (stereo not drawn) registered a TGI of 37.8 µM.
For the compound `CC1=NN(C(=O)c2ccncc2)C(=O)C1N=Nc1ccc(F)cc1` (stereo not drawn), the TGI is above 100 µM.
Still for that read-out and setting: next, `CCOC(OC1=C(C#N)CCCC1)C(CC)[Se]c1ccccc1` (stereo not drawn): 24.9 µM.
On the same count and under the same terms, next, `C=C1C(=O)C23C(O)C1CC[C@H]2C12CCCC(C)(COC(C)=O)[C@H]1[C@H](O)[C@]3(O)OC2` (stereo partly drawn): 4.22 µM.
In turn, `O=S1CSSC1` gave a TGI of 25.1 µM.
On the same count and under the same terms, for `C=CCNC(=O)N(CCC)CCCC(NC(C)=O)C(=O)NCc1ccccc1` (stereo not drawn) the value was above 100 µM; for `CCOC(=O)C1(Cc2ccc3ccccc3c2)CCCCC(=O)N1` (stereo not drawn), 36.9 µM.
Still for that read-out and setting: for `Cc1ccccc1/C=C/C(=O)c1ccccc1` the value was 61.2 µM; for `COC(=O)C1C(=O)N(CCc2c[nH]c3ccccc23)C[C@@H]2CCC(=O)C[C@H]12` (stereo partly drawn), above 100 µM.
The compound `C[C@]12C/C(=C/O)C(=O)C(O)=C1CC[C@@H]1C2CC[C@@]2(C)C1CC[C@@H]2O` (stereo partly drawn) displayed a TGI of 51.1 µM.
The compound `Cc1c(C)c(CC(=O)N2CC2)c(C)c(C)c1CC(=O)N1CC1` yielded a TGI of 13.2 µM.
`CCCCCCCCCCCCCCCCCCOCC(COCCOCC[N+]1(CCCCCC(=O)[O-])CCCC1)Oc1ncccn1` (stereo not drawn) gave a TGI of 2.26 µM.
As to `CC(C)(C)NCC(COc1ccc([N+](=O)[O-])cc1)OP(c1ccccc1)c1ccccc1` (stereo not drawn), the TGI is above 100 µM.
Turning to `COc1cc(C2c3cc4c(cc3[C@@H](Nc3ccc5c(c3)OCCO5)C3COC(=O)[C@H]23)OCO4)cc(OC)c1O` (stereo partly drawn), the TGI stood at 1.87 µM.
On the same count and under the same terms, for `Cn1c(=O)nc2n(-c3ccc(Cl)c(C(F)(F)F)c3)c3ccccc3nc-2c1=O` the value was above 100 µM.

The subject of another experiment is SK-OV-3 ovarian. Nature of the experiment: NCI anticancer screen, dose series, 48 h.
As to `Cc1c2ccncc2c(C)c2c1[nH]c1ccc(O)c(OCC(F)(F)F)c12`, the TGI was found to be 19.9 µM.
Same read-out and setting: next, `CC(C)(C)OC(=O)NC1CCCC1=O` (stereo not drawn): above 100 µM; `O=C1[C@H]2ON(c3ccccc3)C(c3ccco3)[C@H]2C(=O)N1c1ccc(Cc2ccc(N3C(=O)[C@@H]4ON(c5ccccc5)C(c5ccco5)[C@@H]4C3=O)cc2)cc1` (stereo partly drawn): above 100 µM; `Cc1cccc(C)c1N1C(=O)C(=O)C(c2nc3ccccc3s2)/C(=N/NC(=O)NN)C1=O` (stereo not drawn): above 100 µM.
Still for that read-out and setting: next, `CCCCCCC(C)CCCCCCCCCCC(=O)O` (stereo not drawn): above 100 µM.
Same read-out and setting: for `COc1ccc2[nH]c(-c3ccc(O)cc3)cc(=O)c2c1` the value was 7.49 µM; for `CC(C)[O-].CC(C)[O-].O=c1cccccc1[O-].O=c1cccccc1[O-].[Ti+4]`, above 100 µM.
As for `COc1cc(CNc2nc3ccc(C(F)(F)F)cc3nc2-c2ccccc2)cc(OC)c1OC`, the TGI is above 100 µM.
The same measure, in the same setting: next, `COc1ccccc1NC(=O)/C(=C/c1ccccc1)C(C)=O`: above 100 µM.
On the same count and under the same terms, next, `O=C(CC1(O)C(=O)Nc2c(Cl)ccc(Cl)c21)c1ccc(Cl)cc1Cl` (stereo not drawn): 46.6 µM.
For `CC1=NN(C(=O)c2ccncc2)C(=O)C1N=Nc1ccc(F)cc1` (stereo not drawn), the TGI was above 100 µM.
On the same count and under the same terms, next, `CCOC(OC1=C(C#N)CCCC1)C(CC)[Se]c1ccccc1` (stereo not drawn): above 100 µM.
On the same count and under the same terms, for `C=C1C2Oc3ccccc3C1N(c1ccccc1)O2` (stereo not drawn) the value was above 100 µM; for `C=C1C(=O)C23C(O)C1CC[C@H]2C12CCCC(C)(COC(C)=O)[C@H]1[C@H](O)[C@]3(O)OC2` (stereo partly drawn), 13.3 µM; for `O=S1CSSC1`, 53.3 µM.
The same measure, in the same setting: next, `C=CCNC(=O)N(CCC)CCCC(NC(C)=O)C(=O)NCc1ccccc1` (stereo not drawn): above 100 µM; `CCOC(=O)C1(Cc2ccc3ccccc3c2)CCCCC(=O)N1` (stereo not drawn): above 100 µM.
Compound `Cc1ccccc1/C=C/C(=O)c1ccccc1` showed a TGI of 67.3 µM.
`COC(=O)C1C(=O)N(CCc2c[nH]c3ccccc23)C[C@@H]2CCC(=O)C[C@H]12` (stereo partly drawn) displayed a TGI above 100 µM.
Still for that read-out and setting: next, `C[C@]12C/C(=C/O)C(=O)C(O)=C1CC[C@@H]1C2CC[C@@]2(C)C1CC[C@@H]2O` (stereo partly drawn): 65.5 µM; `Cc1c(C)c(CC(=O)N2CC2)c(C)c(C)c1CC(=O)N1CC1`: 99.5 µM.
Same read-out and setting: for `CCCCCCCCCCCCCCCCCCOCC(COCCOCC[N+]1(CCCCCC(=O)[O-])CCCC1)Oc1ncccn1` (stereo not drawn) the value was 6.62 µM.
The same measure, in the same setting: next, `CC(C)(C)NCC(COc1ccc([N+](=O)[O-])cc1)OP(c1ccccc1)c1ccccc1` (stereo not drawn): above 100 µM.
`COc1cc(C2c3cc4c(cc3[C@@H](Nc3ccc5c(c3)OCCO5)C3COC(=O)[C@H]23)OCO4)cc(OC)c1O` (stereo partly drawn): the TGI came out at 8.7 µM.
Same read-out and setting: for `Cn1c(=O)nc2n(-c3ccc(Cl)c(C(F)(F)F)c3)c3ccccc3nc-2c1=O` the value was above 100 µM.

The test system of a further experiment is SK-MEL-5 melanoma. Nature of the experiment: NCI anticancer screen, dose series, 48 h.
Compound `Cc1c2ccncc2c(C)c2c1[nH]c1ccc(O)c(OCC(F)(F)F)c12` yielded a TGI of 7.5 µM.
The same measure, in the same setting: next, `CC(C)(C)OC(=O)NC1CCCC1=O` (stereo not drawn): above 100 µM.
In turn, `O=C1[C@H]2ON(c3ccccc3)C(c3ccco3)[C@H]2C(=O)N1c1ccc(Cc2ccc(N3C(=O)[C@@H]4ON(c5ccccc5)C(c5ccco5)[C@@H]4C3=O)cc2)cc1` (stereo partly drawn) yielded a TGI above 100 µM.
With `Cc1cccc(C)c1N1C(=O)C(=O)C(c2nc3ccccc3s2)/C(=N/NC(=O)NN)C1=O` (stereo not drawn), the TGI is above 100 µM.
Same read-out and setting: next, `CCCCCCC(C)CCCCCCCCCCC(=O)O` (stereo not drawn): above 100 µM.
Still for that read-out and setting: for `COc1ccc2[nH]c(-c3ccc(O)cc3)cc(=O)c2c1` the value was 5.43 µM.
